Experimental data: ChEMBL document CHEMBL3045430, “Natural products-based insecticidal agents 11. Synthesis and insecticidal activity of novel 4α-arylsulfonyloxybenzyloxy-2β-chloropodophyllotoxin derivatives against Mythimna separata Walker in vivo” (2011)
Calls of active or inactive are those of the source. No cut-off for these calls is given here.

Experiments:
Mythimna separata [1] = test: In vivo insecticidal activity against pre-third-instar larval stage of Mythimna separata (Oriental armyworm) in corn leaves assessed as corrected mortality rate at 1 mg/ml treated for 3 secs before larval infestation on corn leaves measured after 20 days by leaf-dipping method; format: functional; settings: 480 h
Mythimna separata [2] = test: In vivo insecticidal activity against pre-third-instar larval stage of Mythimna separata (Oriental armyworm) in corn leaves assessed as corrected mortality rate at 1 mg/ml treated for 3 secs before larval infestation on corn leaves measured after 10 days by leaf-dipping method; format: functional; settings: 240 h
Mythimna separata [3] = test: In vivo insecticidal activity against pre-third-instar larval stage of Mythimna separata (Oriental armyworm) in corn leaves assessed as corrected mortality rate at 1 mg/ml treated for 3 secs before larval infestation on corn leaves measured after 35 days by leaf-dipping method; format: functional; settings: 840 h
Mythimna separata [4] = test: In vivo insecticidal activity against pre-third-instar larval stage of Mythimna separata (Oriental armyworm) in corn leaves assessed as induction of malformed pupae at 1 mg/ml treated for 3 secs before larval infestation on corn leaves measured after […] by leaf-dipping method; format: functional, organism-based
Mythimna separata [5] = test: In vivo insecticidal activity against pre-third-instar larval stage of Mythimna separata (Oriental armyworm) in corn leaves assessed as induction of malformed moth with imperfect wings at 1 mg/ml treated for 3 secs before larval infestation on corn leaves measured after […] by leaf-dipping method; format: functional, organism-based
Mythimna separata [6] = test: In vivo insecticidal activity against pre-third-instar larval stage of Mythimna separata (Oriental armyworm) in corn leaves assessed as induction of slim and wrinkled larval bodies at 1 mg/ml treated for 3 secs before larval infestation on corn leaves measured after 48 hr by leaf-dipping method; format: functional, organism-based

SMILES	mortality at 1000 µg/mL (Mythimna separata [1])	mortality at 1000 µg/mL (Mythimna separata [2])	mortality at 1000 µg/mL (Mythimna separata [3])	Activity (Mythimna separata [4])	Activity (Mythimna separata [5])	Activity (Mythimna separata [6])
COc1cc([C@@H]2c3cc4c(cc3[C@H](OCc3ccccc3)[C@H]3COC(=O)[C@]23Cl)OCO4)cc(OC)c1OC [4ALPHA-BENZYLOXY-2-CHLOROPODOPHYLLOTOXIN]	19.2%	10.7%	52%	–	–	–
COc1cc([C@@H]2c3cc4c(cc3[C@H](O)[C@H]3COC(=O)[C@]23Cl)OCO4)cc(OC)c1OC [2BETA-CHLOROPODOPHYLLOTOXIN]	15.4%	14.3%	36%	–	–	–
COc1cc([C@@H]2c3cc4c(cc3[C@H](OCc3ccccc3OS(=O)(=O)c3ccccc3)[C@H]3COC(=O)[C@]23Cl)OCO4)cc(OC)c1OC	26.9%	7.1%	40%	Active	Active	–
COc1cc([C@@H]2c3cc4c(cc3[C@H](OCc3ccccc3OS(=O)(=O)c3ccc(Cl)cc3)[C@H]3COC(=O)[C@]23Cl)OCO4)cc(OC)c1OC	34.6%	7.1%	48%	–	Active	–
COc1cc([C@@H]2c3cc4c(cc3[C@H](OCc3ccc(OS(=O)(=O)c5ccccc5)cc3)[C@H]3COC(=O)[C@]23Cl)OCO4)cc(OC)c1OC	30.8%	14.3%	36%	Active	–	–
CCc1ccc(S(=O)(=O)Oc2ccccc2CO[C@H]2c3cc4c(cc3[C@@H](c3cc(OC)c(OC)c(OC)c3)[C@@]3(Cl)C(=O)OC[C@H]23)OCO4)cc1	57.7%	35.7%	68%	–	–	Active
CCc1ccc(S(=O)(=O)Oc2ccc(CO[C@H]3c4cc5c(cc4[C@@H](c4cc(OC)c(OC)c(OC)c4)[C@@]4(Cl)C(=O)OC[C@H]34)OCO5)cc2)cc1	38.5%	14.3%	56%	–	–	Active
COc1cc([C@@H]2c3cc4c(cc3[C@H](OCc3ccccc3OS(=O)(=O)c3ccc(C)cc3)[C@H]3COC(=O)[C@]23Cl)OCO4)cc(OC)c1OC	34.6%	21.4%	52%	–	–	–
COc1ccc(S(=O)(=O)Oc2ccc(CO[C@H]3c4cc5c(cc4[C@@H](c4cc(OC)c(OC)c(OC)c4)[C@@]4(Cl)C(=O)OC[C@H]34)OCO5)cc2)cc1	34.6%	21.4%	48%	–	–	–
COc1cc([C@@H]2c3cc4c(cc3[C@H](OCc3ccccc3OS(=O)(=O)c3cccc([N+](=O)[O-])c3)[C@H]3COC(=O)[C@]23Cl)OCO4)cc(OC)c1OC	34.6%	10.7%	36%	Active	Active	–
COc1cc([C@@H]2c3cc4c(cc3[C@H](O)[C@H]3COC(=O)[C@H]23)OCO4)cc(OC)c1OC [PODOFILOX]	23.1%	17.9%	40%	–	–	–
COc1ccc(S(=O)(=O)Oc2ccccc2CO[C@H]2c3cc4c(cc3[C@@H](c3cc(OC)c(OC)c(OC)c3)[C@@]3(Cl)C(=O)OC[C@H]23)OCO4)cc1	34.6%	17.9%	48%	–	Active	–
COc1cc([C@@H]2c3cc4c(cc3[C@H](OCc3ccc(OS(=O)(=O)c5ccc(Cl)c([N+](=O)[O-])c5)cc3)[C@H]3COC(=O)[C@]23Cl)OCO4)cc(OC)c1OC	26.9%	17.9%	48%	–	–	–
CC(=O)O[C@@H]1C[C@H](O)[C@@]23CO[C@@H](O)[C@]1(C)[C@@H]2C[C@@H](O)[C@]1(C)[C@@H]3C(=O)[C@H](OC(C)=O)[C@@]2(C)[C@H](c3ccoc3)C[C@H]3O[C@]321 [TOOSENDANIN]	34.6%	17.9%	48%	–	–	–
COc1cc([C@@H]2c3cc4c(cc3[C@H](OCc3ccc(OS(=O)(=O)c5cccc([N+](=O)[O-])c5)cc3)[C@H]3COC(=O)[C@]23Cl)OCO4)cc(OC)c1OC	38.5%	14.3%	52%	Active	–	–
COc1cc([C@@H]2c3cc4c(cc3[C@H](OCc3ccc(OS(=O)(=O)c5ccc(Cl)cc5)cc3)[C@H]3COC(=O)[C@]23Cl)OCO4)cc(OC)c1OC	38.5%	28.6%	40%	–	–	–
COc1cc([C@@H]2c3cc4c(cc3[C@H](OCc3ccccc3OS(=O)(=O)c3ccc(Cl)c([N+](=O)[O-])c3)[C@H]3COC(=O)[C@]23Cl)OCO4)cc(OC)c1OC	57.7%	25%	72%	Active	–	Active
COc1cc([C@@H]2c3cc4c(cc3[C@H](OCc3ccc(OS(=O)(=O)c5ccc(C)cc5)cc3)[C@H]3COC(=O)[C@]23Cl)OCO4)cc(OC)c1OC	38.5%	17.9%	40%	Active	–	–
